Laboratory results reported in patent US20230025807A1 (priority 2019, published 2023).
Where a name gives a salt, the structure may show the parent alone.

Target: T1, Human CD38 (Homo sapiens, UniProt P28907)
T1 construct: purchased BPS Bioscience 79287
T1 sequence (P28907 1-300): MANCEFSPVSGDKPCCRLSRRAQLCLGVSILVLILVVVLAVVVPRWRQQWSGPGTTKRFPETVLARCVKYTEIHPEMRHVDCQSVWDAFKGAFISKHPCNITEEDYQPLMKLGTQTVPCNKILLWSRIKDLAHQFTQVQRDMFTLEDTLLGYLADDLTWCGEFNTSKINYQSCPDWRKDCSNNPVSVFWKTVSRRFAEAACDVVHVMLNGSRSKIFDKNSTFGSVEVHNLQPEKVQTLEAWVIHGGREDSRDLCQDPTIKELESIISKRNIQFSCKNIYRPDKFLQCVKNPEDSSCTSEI
Assay: biochemical
Conditions: not given
Experimental: CD38 hydrolase buffer (4×) was thawed on ice and 1×CD38 hydrolase buffer was prepared by diluting 4×CD38 hydrolase buffer with water. CD38 hydrolase enzyme was diluted to […] with 1×CD38 hydrolase buffer (10 ng/well). Master mix was prepared by mixing equal volumes of water and CD38 hydrolase buffer (4×) and 10 μl of the mix was added to all the wells. Following master mix addition, 10 μl of the inhibitors and 20 μl of CD38 hydrolase enzyme were added to the wells. For wells designated blank, 10 μl and 20 μl of 1×CD38 hydrolase buffer was added respectively in place of CD38 enzyme and inhibitors. The plate was covered and incubated 30 min at room temperature with slow shaking at 400 rpm. After 30 min incubation, the plate was removed and 10 μl of diluted ε-NAD substrate was added to all the wells. The plate is incubated for 10 min, spun at 1200 rpm for 30 secs to remove bubbles and read in Tecan Spark using a fluorometer setting of excitation 300 nm and emission 410 nm. The reading for the blank was subtracted from all the values. IC50 for the test compounds were determined by using Graphpad prism software v7.0.

Row | Compound | IC50 [nM]
1 | COCCO[C@H]1CC[C@H](NC(=O)c2cc(-c3cncs3)cc3[nH]ccc23)C1 (racemic) [Example 34, N-(Trans-3-(2-methoxyethoxy)cyclopentyl)-6-(thiazol-5-yl)-1H-indole-4-carboxamide] | 265
2 | COCCO[C@H]1CC[C@H](NC(=O)c2cc(-n3cccn3)cc3cc[nH]c23)CC1 [Example 2, N-((1r,4r)-4-(2-methoxyethoxy)cyclohexyl)-5-(1H-pyrazol-1-yl)-1H-indole-7-carboxamide] | > 100000
3 | COCCO[C@H]1CC[C@H](NC(=O)c2cc(-c3ncc[nH]3)cc3cc[nH]c23)CC1 [Example 6, 5-(1H-imidazol-2-yl)-N-((1r,4r)-4-(2-methoxyethoxy)cyclohexyl)-1H-indole-7-carboxamide] | > 100000
4 | COCCO[C@H]1CC[C@H](NC(=O)c2cc(-n3ccnc3)cc3c(C(=O)O)c[nH]c23)CC1 [Example 11, 5-(1H-imidazol-1-yl)-7-(((1r,4r)-4-(2-methoxyethoxy)cyclohexyl)carbamoyl)-1H-indole-3-carboxylic acid] | 580
5 | COCCO[C@H]1CC[C@H](NC(=O)c2cc(-n3ccnc3)cc3c(C=O)c[nH]c23)CC1 [Example 15, 3-formyl-5-(1H-imidazol-1-yl)-N-((1r,4r)-4-(2-methoxyethoxy)cyclohexyl)-1H-indole-7-carboxamide] | 18000
6 | COCCO[C@H]1CC[C@H](NC(=O)c2cc(-n3ccnc3)cc3c(CN(C)C)c[nH]c23)CC1 [Example 16, 3-((dimethylamino)methyl)-5-(1H-imidazol-1-yl)-N-((1r,4r)-4-(2-methoxyethoxy)cyclohexyl)-1H-indole-7-carboxamide] | 800
7 | COCCO[C@H]1CC[C@H](NC(=O)c2cc(-n3ccnc3)cc3c(CN)c[nH]c23)CC1 [Example 17, 3-(aminomethyl)-5-(1H-imidazol-1-yl)-N-((1r,4r)-4-(2-methoxyethoxy)cyclohexyl)-1H-indole-7-carboxamide] | 890
8 | COCCO[C@H]1CC[C@H](NC(=O)c2cc(-c3cncs3)cc3c(C#N)c[nH]c23)CC1 [Example 20, 3-cyano-N-((1r,4r)-4-(2-methoxyethoxy)cyclohexyl)-5-(thiazol-5-yl)-1H-indole-7-carboxamide] | 19
9 | COCCO[C@H]1CC[C@H](NC(=O)c2cc(-n3ccnc3)cc3c(I)c[nH]c23)CC1 [Example 22, 5-(1H-imidazol-1-yl)-3-iodo-N-((1r,4r)-4-(2-methoxyethoxy)cyclohexyl)-1H-indole-7-carboxamide] | 169
10 | O=C(NC1CCS(=O)(=O)CC1)c1cc(-c2cncs2)cc2[nH]ccc12 [Example 24, N-(1,1-dioxidotetrahydro-2H-thiopyran-4-yl)-6-(thiazol-5-yl)-1H-indole-4-carboxamide] | 198
11 | O=C(NCc1c(F)cccc1C(F)(F)F)c1cc(-c2cncs2)cc2[nH]ccc12 [Example 25, N-(2-fluoro-6-(trifluoromethyl)benzyl)-6-(thiazol-5-yl)-1H-indole-4-carboxamide] | 78
12 | CS(=O)(=O)CCNC(=O)c1cc(-c2cncs2)cc2[nH]ccc12 [Example 26, N-(2-(methylsulfonyl)ethyl)-6-(thiazol-5-yl)-1H-indole-4-carboxamide] | 1000
13 | O=C(NCC1CCOCC1)c1cc(-c2cncs2)cc2[nH]ccc12 [Example 27, N-((tetrahydro-2H-pyran-4-yl)methyl)-6-(thiazol-5-yl)-1H-indole-4-carboxamide] | 3700
14 | O=C(NC12CC3CC(CC(O)(C3)C1)C2)c1cc(-c2cncs2)cc2[nH]ccc12 [Example 28, N-((1r,3s,5R,7S)-3-hydroxyadamantan-1-yl)-6-(thiazol-5-yl)-1H-indole-4-carboxamide] | 523
15 | CC(C)(O)[C@H]1CC[C@H](NC(=O)c2cc(-c3cncs3)cc3[nH]ccc23)CC1 [Example 29, N-((1r,4r)-4-(2-hydroxypropan-2-yl)cyclohexyl)-6-(thiazol-5-yl)-1H-indole-4-carboxamide] | 123
16 | O=C(N[C@@H]1CC[C@@H](O)C1)c1cc(-c2cncs2)cc2[nH]ccc12 [Example 31, N-((1R,3R)-3-hydroxycyclopentyl)-6-(thiazol-5-yl)-1H-indole-4-carboxamide] | 392
17 | COCCO[C@H]1C[C@@H](NC(=O)c2cc(-c3cncs3)cc3[nH]ccc23)C1 [Example 32, N-((1s,3s)-3-(2-methoxyethoxy)cyclobutyl)-6-(thiazol-5-yl)-1H-indole-4-carboxamide] | 3300

Row | Compound | IC50 [nM]
18 | O=C(NCc1ccc(N2CCOCC2)cc1)c1cc(-c2cncs2)cc2[nH]ccc12 [Example 33, N-(4-morpholinobenzyl)-6-(thiazol-5-yl)-1H-indole-4-carboxamide] | > 10000
19 | O=C(NC1CCNCC1)c1cc(-c2cncs2)cc2[nH]ccc12 [Example 35, N-(piperidin-4-yl)-6-(thiazol-5-yl)-1H-indole-4-carboxamide hydrochloride] | 7800
20 | CC1(O)CC(NC(=O)c2cc(-c3cncs3)cc3[nH]ccc23)C1 (stereo not drawn) [Example 36, N-(3-hydroxy-3-methylcyclobutyl)-6-(thiazol-5-yl)-1H-indole-4-carboxamide] | 1500
21 | CC(NC(=O)c1cc(-c2cncs2)cc2[nH]ccc12)c1ccccc1F (stereo not drawn) [Example 39, N-(1-(2-fluorophenyl)ethyl)-6-(thiazol-5-yl)-1H-indole-4-carboxamide] | 197
22 | C[C@H]1CCCC[C@H]1NC(=O)c1cc(-c2cncs2)cc2[nH]ccc12 [Example 40, N-((1R,2S)-2-methylcyclohexyl)-6-(thiazol-5-yl)-1H-indole-4-carboxamide] | 78
23 | COCC(C)(C)NC(=O)c1cc(-c2cncs2)cc2[nH]ccc12 [Example 42, N-(1-methoxy-2-methylpropan-2-yl)-6-(thiazol-5-yl)-1H-indole-4-carboxamide] | 3600
24 | CC(C)(O)CNC(=O)c1cc(-c2cncs2)cc2[nH]ccc12 [Example 43, N-(2-hydroxy-2-methylpropyl)-6-(thiazol-5-yl)-1H-indole-4-carboxamide] | 5100
25 | O=C(NC12CC3CC(CC(C3)C1)C2)c1cc(-c2cncs2)cc2[nH]ccc12 [Example 44, N-(adamantan-1-yl)-6-(thiazol-5-yl)-1H-indole-4-carboxamide] | 393
26 | O=C(NC1CCOCC1)c1cc(-c2cncs2)cc2[nH]ccc12 [Example 45, N-(tetrahydro-2H-pyran-4-yl)-6-(thiazol-5-yl)-1H-indole-4-carboxamide] | 664
27 | O=C(N[C@H]1C[C@H](O)C1)c1cc(-c2cncs2)cc2[nH]ccc12 [Example 46, N-((1r,3r)-3-hydroxycyclobutyl)-6-(thiazol-5-yl)-1H-indole-4-carboxamide] | 678
28 | O=C(NC1CCCCC1)c1cc(-c2cncs2)cc2[nH]ccc12 [Example 47, N-cyclohexyl-6-(thiazol-5-yl)-1H-indole-4-carboxamide] | 138
29 | COCCO[C@H]1CC[C@H](NC(=O)c2cc(-c3cncs3)cc3c2ccn3CC2COC2)CC1 [Example 50, N-((1r,4r)-4-(2-methoxyethoxy)cyclohexyl)-1-(oxetan-3-ylmethyl)-6-(thiazol-5-yl)-1H-indole-4-carboxamide] | 503
30 | COCCO[C@H]1CC[C@H](NC(=O)c2cc(-c3cncs3)cc3c2ccn3C(C)C)CC1 [Example 52, 1-isopropyl-N-((1r,4r)-4-(2-methoxyethoxy)cyclohexyl)-6-(thiazol-5-yl)-1H-indole-4-carboxamide] | 1400
31 | COCCO[C@H]1CC[C@H](NC(=O)c2cc(-c3cncs3)cc3c2ccn3CC(C)(C)O)CC1 [Example 53, 1-(2-hydroxy-2-methylpropyl)-N-((1r,4r)-4-(2-methoxyethoxy)cyclohexyl)-6-(thiazol-5-yl)-1H-indole-4-carboxamide] | 3000
32 | COCCO[C@H]1CC[C@H](NC(=O)c2cc(-n3ccnc3)cc3ccn(C)c23)CC1 [Example 54, 5-(1H-imidazol-1-yl)-N-((1r,4r)-4-(2-methoxyethoxy)cyclohexyl)-1-methyl-1H-indole-7-carboxamide] | 375
33 | COCCO[C@H]1CC[C@H](NC(=O)c2cc(-n3ccnc3)cc3[nH]cc(C#N)c23)CC1 [Example 56, 3-cyano-6-(1H-imidazol-1-yl)-N-((1r,4r)-4-(2-methoxyethoxy)cyclohexyl)-1H-indole-4-carboxamide] | 9.8

Same assay, conditions: 30 min pre-incubation at room temperature, ε-NAD substrate 10 min, excitation 300 nm / emission 410 nm; read-out: hCD38 IC50

Row | Compound | IC50 [nM]
34 | COCCO[C@H]1C[C@H](NC(=O)c2cc(-c3cncs3)cc3[nH]ccc23)C1 [Example 30, N-((1r,3r)-3-(2-methoxyethoxy)cyclobutyl)-6-(thiazol-5-yl)-1H-indole-4-carboxamide] | 761
35 | COCCCO[C@H]1CC[C@H](NC(=O)c2cc(-c3cncs3)cc3[nH]ccc23)CC1 [Example 37, N-((1r,4r)-4-(3-methoxypropoxy)cyclohexyl)-6-(thiazol-5-yl)-1H-indole-4-carboxamide] | 63
36 | O=C(N[C@H]1CC[C@H](O)CC1)c1cc(-c2cncs2)cc2[nH]ccc12 [Example 41, N-((1r,4r)-4-hydroxycyclohexyl)-6-(thiazol-5-yl)-1H-indole-4-carboxamide] | 37
